Data taken from PubChem BioAssay (NCI).
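The compound was tested at five concentrations on cells cultured in 96-well plates, with a 48-hour exposure period. GI50 = concentration required for 50% inhibition of growth. TGI: concentration producing complete growth inhibition.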

How the values were obtained:
Test in all cases: NCI tumour cell line growth inhibition, 48 h
U251 CNS = test system: U251 CNS
HCT-116 colon = test system: HCT-116 colon
HCT-15 colon = test system: HCT-15 colon
OVCAR-3 ovarian = test system: OVCAR-3 ovarian
HCC-2998 colon = test system: HCC-2998 colon
TK-10 renal = test system: TK-10 renal
SF-539 CNS = test system: SF-539 CNS
SNB-75 CNS = test system: SNB-75 CNS
SF-295 CNS = test system: SF-295 CNS
HOP-62 NSCLC = test system: HOP-62 NSCLC
IGROV1 ovarian = test system: IGROV1 ovarian
SK-MEL-5 melanoma = test system: SK-MEL-5 melanoma
LOX IMVI melanoma = test system: LOX IMVI melanoma
K-562 leukemia = test system: K-562 leukemia
MALME-3M melanoma = test system: MALME-3M melanoma
OVCAR-4 ovarian = test system: OVCAR-4 ovarian
ACHN renal = test system: ACHN renal
SK-OV-3 ovarian = test system: SK-OV-3 ovarian
786-0 renal = test system: 786-0 renal
UO-31 renal = test system: UO-31 renal
DLD-1 colon = test system: DLD-1 colon
M14 melanoma = test system: M14 melanoma
KM12 colon = test system: KM12 colon
UACC-257 melanoma = test system: UACC-257 melanoma
KM20L2 colon = test system: KM20L2 colon
SK-MEL-28 melanoma = test system: SK-MEL-28 melanoma
COLO 205 colon = test system: COLO 205 colon
RPMI-8226 leukemia = test system: RPMI-8226 leukemia
MOLT-4 leukemia = test system: MOLT-4 leukemia
LXFL 529 NSCLC = test system: LXFL 529 NSCLC
CAKI-1 renal = test system: CAKI-1 renal
HT29 colon = test system: HT29 colon
HOP-92 NSCLC = test system: HOP-92 NSCLC
DMS 273 small cell lung = test system: DMS 273 small cell lung
A549 NSCLC = test system: A549 NSCLC
SK-MEL-2 melanoma = test system: SK-MEL-2 melanoma
HOP-18 NSCLC = test system: HOP-18 NSCLC
SF-268 CNS = test system: SF-268 CNS
SN12C renal = test system: SN12C renal
SNB-19 CNS = test system: SNB-19 CNS
HL-60(TB) leukemia = test system: HL-60(TB) leukemia
NCI-H460 lung = test system: NCI-H460 lung
UACC-62 melanoma = test system: UACC-62 melanoma
CCRF-CEM leukemia = test system: CCRF-CEM leukemia
NCI-H226 lung = test system: NCI-H226 lung
SW-620 colon = test system: SW-620 colon
OVCAR-8 ovarian = test system: OVCAR-8 ovarian
A498 renal = test system: A498 renal
DMS 114 small cell lung = test system: DMS 114 small cell lung
NCI-H23 lung = test system: NCI-H23 lung
OVCAR-5 ovarian = test system: OVCAR-5 ovarian
M19-MEL melanoma = test system: M19-MEL melanoma
SR leukemia = test system: SR leukemia

SMILES: C1C[OH+]CCNCC[OH+]CC[OH+]CCN1.O.[Cl-].[Pt+4]
- GI50 (U251 CNS): > 100 µM
- TGI (U251 CNS): > 100 µM
- GI50 (HCT-116 colon): > 100 µM
- TGI (HCT-116 colon): > 100 µM
- GI50 (HCT-15 colon): > 100 µM
- TGI (HCT-15 colon): > 100 µM
- GI50 (OVCAR-3 ovarian): > 100 µM
- TGI (OVCAR-3 ovarian): > 100 µM
- GI50 (HCC-2998 colon): > 100 µM
- TGI (HCC-2998 colon): > 100 µM
- GI50 (TK-10 renal): > 100 µM
- TGI (TK-10 renal): > 100 µM
- GI50 (SF-539 CNS): > 100 µM
- TGI (SF-539 CNS): > 100 µM
- GI50 (SNB-75 CNS): > 100 µM
- TGI (SNB-75 CNS): > 100 µM
- GI50 (SF-295 CNS): > 100 µM
- TGI (SF-295 CNS): > 100 µM
- GI50 (HOP-62 NSCLC): > 100 µM
- TGI (HOP-62 NSCLC): > 100 µM
- GI50 (IGROV1 ovarian): > 100 µM
- TGI (IGROV1 ovarian): > 100 µM
- GI50 (SK-MEL-5 melanoma): > 100 µM
- TGI (SK-MEL-5 melanoma): > 100 µM
- GI50 (LOX IMVI melanoma): > 100 µM
- TGI (LOX IMVI melanoma): > 100 µM
- GI50 (K-562 leukemia): > 100 µM
- TGI (K-562 leukemia): > 100 µM
- GI50 (MALME-3M melanoma): > 100 µM
- TGI (MALME-3M melanoma): > 100 µM
- GI50 (OVCAR-4 ovarian): > 100 µM
- TGI (OVCAR-4 ovarian): > 100 µM
- GI50 (ACHN renal): > 100 µM
- TGI (ACHN renal): > 100 µM
- GI50 (SK-OV-3 ovarian): > 100 µM
- TGI (SK-OV-3 ovarian): > 100 µM
- GI50 (786-0 renal): > 100 µM
- TGI (786-0 renal): > 100 µM
- GI50 (UO-31 renal): > 100 µM
- TGI (UO-31 renal): > 100 µM
- GI50 (DLD-1 colon): > 100 µM
- TGI (DLD-1 colon): > 100 µM
- GI50 (M14 melanoma): > 10 µM
- TGI (M14 melanoma): > 10 µM
- GI50 (KM12 colon): > 100 µM
- TGI (KM12 colon): > 100 µM
- GI50 (UACC-257 melanoma): > 100 µM
- TGI (UACC-257 melanoma): > 100 µM
- GI50 (KM20L2 colon): > 100 µM
- TGI (KM20L2 colon): > 100 µM
- GI50 (SK-MEL-28 melanoma): > 100 µM
- TGI (SK-MEL-28 melanoma): > 100 µM
- GI50 (COLO 205 colon): > 100 µM
- TGI (COLO 205 colon): > 100 µM
- GI50 (RPMI-8226 leukemia): > 100 µM
- TGI (RPMI-8226 leukemia): > 100 µM
- GI50 (MOLT-4 leukemia): > 100 µM
- TGI (MOLT-4 leukemia): > 100 µM
- GI50 (LXFL 529 NSCLC): > 100 µM
- TGI (LXFL 529 NSCLC): > 100 µM
- GI50 (CAKI-1 renal): > 100 µM
- TGI (CAKI-1 renal): > 100 µM
- GI50 (HT29 colon): > 100 µM
- TGI (HT29 colon): > 100 µM
- GI50 (HOP-92 NSCLC): > 10 µM
- TGI (HOP-92 NSCLC): > 10 µM
- GI50 (DMS 273 small cell lung): > 100 µM
- TGI (DMS 273 small cell lung): > 100 µM
- GI50 (A549 NSCLC): > 100 µM
- TGI (A549 NSCLC): > 100 µM
- GI50 (SK-MEL-2 melanoma): > 100 µM
- TGI (SK-MEL-2 melanoma): > 100 µM
- GI50 (HOP-18 NSCLC): > 100 µM
- TGI (HOP-18 NSCLC): > 100 µM
- GI50 (SF-268 CNS): > 100 µM
- TGI (SF-268 CNS): > 100 µM
- GI50 (SN12C renal): > 100 µM
- TGI (SN12C renal): > 100 µM
- GI50 (SNB-19 CNS): > 100 µM
- TGI (SNB-19 CNS): > 100 µM
- GI50 (HL-60(TB) leukemia): > 100 µM
- TGI (HL-60(TB) leukemia): > 100 µM
- GI50 (NCI-H460 lung): > 100 µM
- TGI (NCI-H460 lung): > 100 µM
- GI50 (UACC-62 melanoma): > 100 µM
- TGI (UACC-62 melanoma): > 100 µM
- GI50 (CCRF-CEM leukemia): > 100 µM
- TGI (CCRF-CEM leukemia): > 100 µM
- GI50 (NCI-H226 lung): > 100 µM
- TGI (NCI-H226 lung): > 100 µM
- GI50 (SW-620 colon): > 100 µM
- TGI (SW-620 colon): > 100 µM
- GI50 (OVCAR-8 ovarian): > 100 µM
- TGI (OVCAR-8 ovarian): > 100 µM
- GI50 (A498 renal): > 100 µM
- TGI (A498 renal): > 100 µM

SMILES: Cc1ccc(S(=O)(=O)OCC23CCC(C2)C2CC23)cc1 (stereo not given)
- TGI (U251 CNS): > 100 µM
- TGI (HCT-116 colon): > 100 µM
- TGI (DMS 114 small cell lung): > 100 µM
- TGI (HCT-15 colon): > 100 µM
- TGI (OVCAR-3 ovarian): > 100 µM
- TGI (NCI-H23 lung): > 100 µM
- TGI (HCC-2998 colon): > 100 µM
- TGI (TK-10 renal): > 100 µM
- TGI (SF-295 CNS): > 100 µM
- TGI (HOP-62 NSCLC): > 100 µM
- TGI (OVCAR-5 ovarian): > 100 µM
- TGI (IGROV1 ovarian): > 100 µM
- TGI (SK-MEL-5 melanoma): > 100 µM
- TGI (LOX IMVI melanoma): > 100 µM
- TGI (K-562 leukemia): > 100 µM
- TGI (MALME-3M melanoma): > 100 µM
- TGI (OVCAR-4 ovarian): > 100 µM
- TGI (ACHN renal): > 100 µM
- TGI (SK-OV-3 ovarian): > 100 µM
- TGI (M19-MEL melanoma): > 100 µM
- TGI (786-0 renal): > 100 µM
- TGI (UO-31 renal): > 100 µM
- TGI (DLD-1 colon): > 100 µM
- TGI (M14 melanoma): > 100 µM
- TGI (UACC-257 melanoma): > 100 µM
- TGI (KM20L2 colon): > 100 µM
- TGI (SK-MEL-28 melanoma): > 100 µM
- TGI (COLO 205 colon): > 100 µM
- TGI (RPMI-8226 leukemia): > 100 µM
- TGI (MOLT-4 leukemia): > 100 µM
- TGI (LXFL 529 NSCLC): > 100 µM
- TGI (CAKI-1 renal): > 100 µM
- TGI (HT29 colon): > 100 µM
- TGI (HOP-92 NSCLC): 94.8 µM
- TGI (DMS 273 small cell lung): > 100 µM
- TGI (A549 NSCLC): > 100 µM
- TGI (HOP-18 NSCLC): > 100 µM
- TGI (SF-268 CNS): > 100 µM
- TGI (SN12C renal): > 100 µM
- TGI (SR leukemia): > 100 µM
- TGI (SNB-19 CNS): > 100 µM
- TGI (HL-60(TB) leukemia): 98.8 µM
- TGI (NCI-H460 lung): > 100 µM
- TGI (UACC-62 melanoma): > 100 µM
- TGI (CCRF-CEM leukemia): > 100 µM
- TGI (NCI-H226 lung): > 100 µM
- TGI (SW-620 colon): > 100 µM
- TGI (OVCAR-8 ovarian): > 100 µM
- TGI (A498 renal): > 100 µM
